Columns and labels:
[1] = powder in polypropylene syringes, 5.8 to 31 KGy
Description: The eight formulations prepared for testing were sterilized in glass vials and gamma resistant polypropylene copolymer syringes using various dose levels of irradiation.
The dose level was 30 to 33 KGy for each of the samples.
Syringes and glass vials obtained from the gamma radiation testing were analyzed with the control formulations.
These were loaded into gamma-irradiation polypropylene syringes and capped.

[2] = Calculated risperidone release and plasma levels in dogs from in vitro release (in vitro to in vivo correlation); conditions: suggested by calculated release and apomorphine data
[3] = limit of solubility
[4] = Risperidone release from ATRIGEL implants in rats (implant retrieval; 24-hour burst, 14-day and 28-day studies); assay type: in vivo, Sprague-Dawley rats; conditions: 28 days
Description: The retrieved implants and tissue were placed in a −86° C. freezer for at least 1 hour. The frozen samples were lyophilized for at least 4 hours. The dry samples were minced with scissors, which were cleaned after each sample to minimize cross-contamination. The samples were minced until powder-like. Approximately 5 mL of 70:30 dimethylsulfoxide/methanol with 1% polyethyleneimine extraction solvent was added to each sample. The samples were mixed overnight at about 200 rpm at 37° C. on the orbital shaker. The samples were sonicated for 10 minutes. 1.5 mL of the extract was loaded into a 3 mL lure lock syringe and filtered through a 0.2 μm pore size filter into a clean test tube. 1 mL of the filtrate was placed into a clean test tube and 4 mL of 50:50 acetonitrile/H2O was added. The test tube was vortexed for 30 seconds. About 2 mL of the solution was loaded into a 3 mL lure lock syringe and filtered into an High Performance Liquid Chromatography vial.

SMILES: Cc1nc2n(c(=O)c1CCN1CCC(c3noc4cc(F)ccc34)CC1)CCCC2 [Risperidone, 4-[2-[4-(6-fluorobenzo[d]isoxazol-3-yl)-1-piperidyl]ethyl]-3-methyl-2,6-diazabicyclo[4.4.0]deca-1,3-dien-5-one]
- color after gamma irradiation [1]: turned beige at the lowest level of irradiation
- minimum daily dose of risperidone needed in dogs for a biological response [2]: about 0.6 mg
- solubility in N-methyl-2-pyrrolidone [3]: up to 5 % by weight
- stability of risperidone in ATRIGEL implants [4]: stable in ATRIGEL® implants for 28 days

Source: patent publication US10010612B2 (Indivior UK Limited, priority 2007, dated 2018)
